Test results from PubChem BioAssay AID743310 (Sanford-Burnham Center for Chemical Genomics, 2014).
Active and inactive are the calls of the source.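 How the source made its calls: active means IC50 at or below 20 µM; inactive means the rest.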

molecular target: Dual specificity protein phosphatase 3 (Homo sapiens) (UniProt P51452); experiment: VHR1 phosphatase inhibition, selectivity check, SAR follow-up, selectivity assay for LMPTP inhibitor project, biochemical, fluorescence, OMFP substrate (AID 743310); conditions: recombinant VHR, OMFP fluorogenic substrate, 50 min
Sequence (P51452 whole entry, looked up): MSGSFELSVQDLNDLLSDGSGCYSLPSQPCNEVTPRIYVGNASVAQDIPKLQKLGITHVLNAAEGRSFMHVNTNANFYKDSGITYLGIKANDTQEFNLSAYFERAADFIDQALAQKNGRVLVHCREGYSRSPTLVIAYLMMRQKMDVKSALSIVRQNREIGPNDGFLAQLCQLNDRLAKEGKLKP

Row | Compound | IC50
1 | Clc1ccc(-c2cc(NCCCN3CCCCC3)c3ccccc3n2)cc1 | > 80 µM (inactive)
2 | Fc1ccccc1-c1nc(NC2CCCC2)c2ccccc2n1 | > 80 µM (inactive)
3 | c1ccc(-c2nc(NCCN3CCCC3)c3ccccc3n2)cc1 | > 80 µM (inactive)
4 | c1ccc(-c2cc(OCCCN3CCCCC3)c3ccccc3n2)cc1 | > 80 µM (inactive)
5 | COc1ccccc1-c1cc(NCCCN2CCCCC2)c2ccccc2n1 | > 80 µM (inactive)
6 | c1ccc(-c2cc(N3CCCCC3)c3ccccc3n2)cc1 | > 80 µM (inactive)
7 | COc1ccccc1CNc1ncnc2ccsc12 | > 80 µM (inactive)
8 | Fc1cccc(-c2cc(NCCCN3CCCCC3)c3ccccc3n2)c1 | > 80 µM (inactive)
9 | Cc1ccc(-c2cc(NCCCN3CCCCC3)c3ccccc3n2)cc1 | > 80 µM (inactive)
10 | c1ccc(-c2nc(N3CCOCC3)c3ccccc3n2)cc1 | > 80 µM (inactive)
11 | Fc1ccc2nc(-c3ccccc3)cc(NCCCN3CCCCC3)c2c1 | > 80 µM (inactive)
12 | c1ccc(-c2nc(N3CCCCCC3)c3ccccc3n2)cc1 | > 80 µM (inactive)
13 | c1ccc(-c2cc(NCCN3CCCC3)c3ccccc3n2)cc1 | > 80 µM (inactive)
14 | Clc1cccc(-c2cc(NCCCN3CCCCC3)c3ccccc3n2)c1 | > 80 µM (inactive)
15 | CC(C)OCCCNc1nc(-c2ccccc2)nc2ccccc12 | > 80 µM (inactive)
16 | c1ccc(-c2nc(NCCCn3ccnc3)c3ccccc3n2)cc1 | > 80 µM (inactive)
17 | Nc1nc(N)c(Cc2ccc(Cl)cc2Cl)c(N)n1 | > 80 µM (inactive)
18 | Clc1ccccc1-c1cc(NCCCN2CCCCC2)c2ccccc2n1 | > 80 µM (inactive)
19 | c1ccc(-c2nc(NC3CCCC3)c3ccccc3n2)cc1 | > 80 µM (inactive)
20 | COc1cc2nc(-c3ccccc3)cc(NCCCN3CCCCC3)c2cc1OC | > 80 µM (inactive)

Row | Compound | IC50
21 | c1ccc2c(NCCCN3CCCCC3)cc(-c3ccncc3)nc2c1 | > 80 µM (inactive)
22 | c1ccc(-c2cc(NCCCN3CCOCC3)c3ccccc3n2)cc1 | > 80 µM (inactive)
23 | Cc1ccc2nc(-c3ccccc3)cc(NCCCN3CCCCC3)c2c1 | > 80 µM (inactive)
24 | CCN(CC)c1nc(-c2ccccc2)nc2ccccc12 | > 80 µM (inactive)
25 | c1ccc(-c2nc(NCCN3CCOCC3)c3ccccc3n2)cc1 | > 80 µM (inactive)
26 | c1ccc(-c2nc(NC3CCCCC3)c3ccccc3n2)cc1 | > 80 µM (inactive)
27 | Fc1ccc(-c2cc(NCCCN3CCCCC3)c3ccccc3n2)cc1 | > 80 µM (inactive)
28 | Cc1ccc(-c2nc(NCc3cccnc3)c3ccccc3n2)cc1 | > 80 µM (inactive)
29 | CN(C)CCNc1nc(-c2ccccc2)nc2ccccc12 | > 80 µM (inactive)
30 | O=C(OCCNc1nc(-c2ccccc2)nc2ccccc12)c1cccnc1 | > 80 µM (inactive)
31 | Brc1ccc2nc(-c3ccccc3)cc(NCCCN3CCCCC3)c2c1 | > 80 µM (inactive)
32 | Cc1ccc(-c2nc(NCCN3CCOCC3)c3ccccc3n2)cc1 | > 80 µM (inactive)
33 | c1ccc(-c2cc(SCCCN3CCCCC3)c3ccccc3n2)cc1 | > 80 µM (inactive)
34 | FC(F)(F)c1cccc(-c2cc(NCCCN3CCCCC3)c3ccccc3n2)c1 | > 80 µM (inactive)
35 | CC1CCN(c2nc(-c3ccccc3)nc3ccccc23)CC1 | > 80 µM (inactive)
36 | CC(C)Nc1nc(-c2ccccc2)nc2ccccc12 | > 80 µM (inactive)
37 | c1ccc(-c2nc(NCCN3CCCCC3)c3ccccc3n2)cc1 | > 80 µM (inactive)
38 | c1ccc(-c2nc(N3CCCCC3)c3ccccc3n2)cc1 | > 80 µM (inactive)
39 | O=C(OCCNc1nc(-c2ccccc2)nc2ccccc12)c1ccncc1 | > 80 µM (inactive)
40 | c1ccc(-c2nc(N3CCCC3)c3ccccc3n2)cc1 | > 80 µM (inactive)

Row | Compound | IC50
41 | c1ccc(-c2nc(N3CCSCC3)c3ccccc3n2)cc1 | > 80 µM (inactive)
42 | CCCCNc1nc(-c2ccccc2)nc2ccccc12 | > 80 µM (inactive)
43 | c1ccc(-c2cc(NCCN3CCCCC3)c3ccccc3n2)cc1 | > 80 µM (inactive)
44 | c1ccc(-c2cc(NCCCN3CCCCC3)c3ccccc3n2)cc1 | > 80 µM (inactive)
45 | CN(C)CCNc1cc(-c2ccccc2)nc2ccccc12 | > 80 µM (inactive)
46 | COc1ccc(-c2cc(NCCCN3CCCCC3)c3ccccc3n2)cc1 | > 80 µM (inactive)
47 | c1ccc(-c2nc(NCc3cccnc3)c3ccccc3n2)cc1 | > 80 µM (inactive)
48 | c1ccc(-c2nc(NCCCN3CCOCC3)c3ccccc3n2)cc1 | > 80 µM (inactive)
49 | c1ccc(-c2cc(NCCN3CCOCC3)c3ccccc3n2)cc1 | > 80 µM (inactive)
50 | c1ccc(-c2nc(NC3CC3)c3ccccc3n2)cc1 | > 80 µM (inactive)
51 | COc1cccc(-c2cc(NCCCN3CCCCC3)c3ccccc3n2)c1 | > 80 µM (inactive)
52 | CCc1nc(N)nc(N)c1-c1ccc(Cl)cc1 | > 80 µM (inactive)
53 | CN1CCN(c2nc(-c3ccccc3)nc3ccccc23)CC1 | > 80 µM (inactive)
54 | Clc1cccc(Cl)c1Cn1cnc(=NCc2ccco2)c2[nH]cnc21 | > 80 µM (inactive)
55 | c1ccc(-c2nc(NCCCN3CCCCC3)c3ccccc3n2)cc1 | > 80 µM (inactive)
56 | CC(C)CNc1nc(-c2ccccc2)nc2ccccc12 | > 80 µM (inactive)
57 | Cc1cccc(-c2nc(NCCCN3CCOCC3)c3ccccc3n2)c1 | > 80 µM (inactive)
58 | Fc1ccccc1-c1nc(NCCCN2CCOCC2)c2ccccc2n1 | > 80 µM (inactive)
59 | Cc1c(CCC(=O)O)c(=O)oc2c(C)c(OCc3ccccc3Cl)ccc12 | 5.21 µM
